Laboratory results as given in the NIST ThermoML archive (doi:10.1007/s10765-012-1233-x).

Details: Liquid; for viscosity: Falling or rolling sphere viscometry; for mass density: Vibrating tube method; for thermal conductivity: Hot wire method

CCCCCCn1cc[n+](C)c1.F[B-](F)(F)F [1-hexyl-3-methylimidazolium tetrafluoroborate]
Details | mass density [kg/m3] | thermal conductivity [W/m/K] | viscosity [mPa·s]
293.15 K, 100 kPa | 1148.6 | – | 286
293.15 K, 5000 kPa | 1151.2 | – | 302
293.15 K, 10000 kPa | 1153.5 | – | 318
293.15 K, 15000 kPa | 1155.8 | – | 345
293.15 K, 20000 kPa | 1158.2 | – | 372
294.2 K, 100 kPa | – | 0.166 | –
294.2 K, 10000 kPa | – | 0.168 | –
294.2 K, 20000 kPa | – | 0.17 | –
313.15 K, 100 kPa | 1134.1 | – | 92.9
313.15 K, 5000 kPa | 1136.7 | – | 98.7
313.15 K, 10000 kPa | 1139.4 | – | 104
313.15 K, 15000 kPa | 1141.8 | – | 109
313.15 K, 20000 kPa | 1144.2 | – | 115
314.3 K, 100 kPa | – | 0.165 | –
314.3 K, 10000 kPa | – | 0.168 | –
314.3 K, 20000 kPa | – | 0.169 | –
333.15 K, 100 kPa | 1120.5 | – | 40.4
333.15 K, 5000 kPa | 1123.1 | – | 42.5
333.15 K, 10000 kPa | 1125.8 | – | 44.4
333.15 K, 15000 kPa | 1128.5 | – | 45.5
333.15 K, 20000 kPa | 1131.1 | – | 48.2
334.4 K, 100 kPa | – | 0.164 | –
334.4 K, 10000 kPa | – | 0.167 | –
334.4 K, 20000 kPa | – | 0.169 | –
353.15 K, 100 kPa | 1107.1 | – | 21.2
353.15 K, 5000 kPa | 1109.9 | – | 22.3
353.15 K, 10000 kPa | 1112.7 | – | 22.7
353.15 K, 15000 kPa | 1115.5 | – | 23.9
353.15 K, 20000 kPa | 1118.3 | – | 24.3

CCCCCCCC[n+]1ccn(C)c1.F[B-](F)(F)F [1-methyl-3-octylimidazolium tetrafluoroborate]
Details | mass density [kg/m3] | thermal conductivity [W/m/K] | viscosity [mPa·s]
293.15 K, 100 kPa | 1107.1 | – | 472
293.15 K, 5000 kPa | 1109.7 | – | 510
293.15 K, 10000 kPa | 1112.2 | – | 537
293.15 K, 15000 kPa | 1114.6 | – | 572
293.15 K, 20000 kPa | 1117 | – | 649
294.2 K, 100 kPa | – | 0.164 | –
294.2 K, 10000 kPa | – | 0.165 | –
294.2 K, 20000 kPa | – | 0.167 | –
313.15 K, 100 kPa | 1093.5 | – | 146
313.15 K, 5000 kPa | 1096.1 | – | 157
313.15 K, 10000 kPa | 1098.8 | – | 166
313.15 K, 15000 kPa | 1101.4 | – | 175
313.15 K, 20000 kPa | 1103.9 | – | 188
314.3 K, 100 kPa | – | 0.163 | –
314.3 K, 10000 kPa | – | 0.164 | –
314.3 K, 20000 kPa | – | 0.166 | –
333.15 K, 100 kPa | 1079.8 | – | 58
333.15 K, 5000 kPa | 1082.6 | – | 60.6
333.15 K, 10000 kPa | 1085.4 | – | 63.6
333.15 K, 15000 kPa | 1088.1 | – | 66.4
333.15 K, 20000 kPa | 1090.8 | – | 69.8
334.4 K, 100 kPa | – | 0.16 | –
334.4 K, 10000 kPa | – | 0.162 | –
334.4 K, 20000 kPa | – | 0.164 | –
353.15 K, 100 kPa | 1066.8 | – | 28.1
353.15 K, 5000 kPa | 1069.7 | – | 29.8
353.15 K, 10000 kPa | 1072.7 | – | 30.8
353.15 K, 15000 kPa | 1075.5 | – | 32.1
353.15 K, 20000 kPa | 1078.3 | – | 33.4
